Test: Shake-flask solubility in 1-octanol and dissolution thermodynamics
Assay type: physicochemical
Conditions: for Molar solubility S2 × 10^1 in 1-Octanol: value = S2 × 10^1
Method: The solubility of the investigated drugs in 1-octanol and n-hexane was determined by the shake-flask technique. To this end, the glass vials containing the solutions with the excess amount of the compound were placed in an air thermostat and stirred at a predetermined temperature for no less than 24 h (equilibrium state). After this, the suspensions were left for 5 h or more to precipitate the undissolved drug and centrifuged (Biofuge pico, Thermo Electron LED GmbH, Langenselbold, Germany) at a predetermined temperature during 20 min (10,000 rpm). The aliquots of the clear solutions were taken and examined via a spectrophotometer (Cary-50 Varian, Palo Alto, CA, USA, Software Version 3.00 (339)). The molar concentrations of the compounds in the solvents were calculated using calibration curves at the appropriate wavelength characteristic for each substance. The experimental results were reported as an average of at least three replicated experiments with an accuracy of 2–4%. In order to evaluate the thermodynamic parameters of the IPN dissolution in 1-octanol and n-hexane, the molar solubility ( S2 ) was recalculated to the mole fraction ( X2 ) by the equation:(1) X2=M2S2/S2(M1−M2)+1000ρ, where M1 and M2 are the molar masses of IPN and organic solvent, respectively, and ρ (g∙cm^−3) is the density of the pure solvents. The linear functions describing the temperature dependences of the solubility within the temperature interval from 293.2 ± 0.5 K to 313.2 ± 0.5 K for both organic solvents were derived:(2) lnX2=A+B/T
The apparent solution enthalpies ΔHsol0 were determined by the van’t Hoff equation:(3) ∂(lnX2)/∂T=ΔHsol0/RT^2
The apparent dissolution Gibbs energies ( ΔGsol ) and entropies ( ΔSsol ) were calculated at a standard temperature of 298.2 K and 310.2 K:(4) ΔGsol298.2/310.2=−RT(lnX2298.2/310.2) (5) ΔGsol298.2/310.2=ΔHsol0−TΔSsol298.2/310.2 where R is the universal gas constant.

TΔSsol298.2 (1-octanol, 298.2 K): 3.42 ± 0.096 kcal/mol | ΔGsol298.2 (1-octanol, 298.2 K): 1.48 ± 0.024 kcal/mol | ζHsol (1-octanol, 298.2 K (first value of cell)): 58.9% | ΔHsol298.2/310.2 (1-octanol, 298.2 K and 310.2 K): 4.9 ± 0.048 kcal/mol | TΔSsol310.2 (1-octanol, 310.2 K): 3.56 ± 0.096 kcal/mol | ΔGsol310.2 (1-octanol, 310.2 K): 1.34 ± 0.024 kcal/mol | ζHsol (1-octanol, 310.2 K (second value of cell)): 57.9% | solubility higher in 1-octanol than in n-hexane (310.2 K, ratio of molar solubilities): 338 fold | Molar solubility S2 × 10^1 in 1-Octanol (T 293.2 K): 4.44 ± 0.09 × 10^1 (M) | Molar solubility S2 × 10^1 in 1-Octanol (T 298.2 K): 5.06 ± 0.06 × 10^1 (M) | Molar solubility S2 × 10^1 in 1-Octanol (T 303.2 K): 5.73 ± 0.11 × 10^1 (M) | Molar solubility S2 × 10^1 in 1-Octanol (T 310.2 K): 6.86 ± 0.18 × 10^1 (M)
SMILES: CC(C)NNC(=O)c1ccncc1 [IPN, N′-isopropyl isonicotinic hydrazide]

— publication PMC10224004, “Modulation of Distribution and Diffusion through the Lipophilic Membrane with Cyclodextrins Exemplified by a Model Pyridinecarboxamide Derivative” (Pharmaceutics, 2023)
